Experimental data as given in patent publication US8993007B2, “Preparation used for anti-tachyarrhythmia and its preparation method” (Heshengyuan of Chinese Medicine Research & Development …, priority 2012, dated 2015).
“And” between values parts separate entries of the source, which are not always exact repeats. Identical values can stand only once.

What was measured:
Wistar male rats = experiment: MI areas after ligation of left anterior descending artery; type: in vivo; conditions: Metoprolol 2.25 mg/kg, Shengsong Yangxin capsule 0.432 g/kg; intragastric 7 days
Experimental: (§1) The rats were fixed on their back on board and chloral hydrate (10 mg/kg) intraperitoneally administered. Between the rib 4 and 5 on the left side, an open was cut into pleural cavity and the pericardium was torn open, then the heart was extruded by light pressure to the thorax. Two mm beneath left auricle, a ligation was done on left anterior descending artery with surgical suture (USP 0) and the heart was put back to the thorax. The cut open was closed and stitched. Penicillin (up to 80,000 unit) was used for the incision to protect again infection.
Sixty-six rats models were randomly assigned to 6 groups, 11 for each. They were the model group, the Metoprolol group, the Shengsong Yangxin capsule group, the large-dose extract group, the moderate-dose extract group and the small-dose extract group.
1) The Metoprolol group. Due to the administration of β receptor inhibitor after myocardial infarction (MI), Metoprolol was administered initially at small dose of 12.5 mg, bid, that is, the dosage was 25×0.018×5=2.25 mg/kg. Metoprolol 67.5 mg was accurately weighed and evenly dissolved with 300 ml normal saline (0.9%). […]
The hearts of the rats were harvested 2 hours after the last treatments were administered and the residues of blood in the heart chambers were washed with normal saline. […] Armed with the MPIDS-500, two technicians measured the MI areas on both sides of the slices. […]

Na^+—K^+-ATPase = experiment: Na+-K+-ATPase concentration in cardiac tissue homogenate of MI rats (assay kit); type: in vivo; conditions: Metoprolol, Shengsong Yangxin capsule (doses per b188: 2.25 mg/kg, 0.432 g/kg), intragastric 7 days
Experimental: as §1, with “beneath the” for “beneath”
(§2) Forty-two rats models were randomly assigned to 6 groups, 7 for each. They were the model group, the Metoprolol group, the Shengsong Yangxin capsule group, the large-dose extract group, the moderate-dose extract group, the small-dose extract group. Added were a control group of 6 rats and sham operation group of 6 rats. Totally there were 8 groups.
(§3) 1.2.3 Medicines Doses and Preparation. See Section 1.2.3 in the Experiment Example 1.
(§4) Starting from the next day after model establishment, the medicines were all administered intragastrically to the relevant groups accordingly, while the model group and sham operation group were given normal saline. The treatment course lasted for 7 days. […]

Ca^2+-ATPase = experiment: Ca2+-ATPase concentration in cardiac tissue homogenate of MI rats (assay kit); type: in vivo; conditions: Metoprolol, Shengsong Yangxin capsule (doses per b188: 2.25 mg/kg, 0.432 g/kg), intragastric 7 days
Experimental: as §1, with “beneath the” for “beneath”
as §2, §3, §4

connexin 43 [1] = experiment: Western Blot test of connexin 43 in MI areas; type: in vivo, rats; conditions: Metoprolol, Shengsong Yangxin capsule, intragastric 7 days
Experimental: as §1, with “fixed the” for “fixed”, “(3.5%, […]” for “(10”
Eighty-four rats' models were randomly assigned to 6 groups, 14 for each. They were the model group, the Metoprolol group, the Shengsong Yangxin capsule group, the large-dose extract group, the moderate-dose extract group, the small-dose extract group. Two more groups added were the control group of 13 rats and sham operation group of 13 rats. Some rats were dead the next day before intragastrical administration: 1 in the sham operation group, model group, Metoprolol group, Shengsong Yangxin capsule group, large-dose extract group and moderate-dose extract group respectively and 2 in the small-dose extract group.
1.2.3 Medicines Doses and Preparation. See Section 1.2.3 in the Experiment Example 1. […]

connexin 43 [2] = experiment: Immunohistochemical expression of connexin 43 in left ventricle; type: in vivo, rats; conditions: immunohistochemistry; Metoprolol, Shengsong Yangxin capsule; intragastric 7 days
Experimental: (§5) Two primary antibodies were used in immunohistochemical test. The connexin 43 rabbit ploy-colonal antibody was supplied by CST, USA, Batch No. 08/2011 and phospho-connexin 43 (ser 368) rabbit ploy-colonal antibody was supplied by Santa Cruz, USA, Batch no. G2011. SP 2-step reagent kit for secondary antibody was supplied by Beijing Zhongshan Goldenspace Biotechnology Co. Ltd., Batch no. K116812C. Anhydrous ethyl alcohol was supplied by Beijing Chemical Works, 2500 ml/bottle, Batch no. 20110808.95% ethanol was supplied by Beijing Chemical Works, 2500 ml/bottle, Batch no. 20110808. Formalin solution was supplied by Xilong Chemical Corporation, 500 ml/bottle, Batch no. 1110082. Xylene solution was supplied by Beijing Chemical Works, 500 ml/bottle, Batch no. 20110808. Paraffin section (54-56° C.) was supplied by Beijing Beihuakangtai Reagents Co. Ltd., Batch no. 20110428. DAB reagent kit was supplied by Beijing ComWin Biotech Co. Ltd., Batch no. 03911H. Polylysine, strength 25 mg, was supplied by Shanghai Sigma-aldrich Trading Co. Ltd., Batch no. P1399. Microscopic cover glass (24×24 mm) and slide glass (model 7105) were supplied by Beijing Chuanganghuaxin Experimental Instrument Co. Ltd. Stainless steel pressure port, microwave oven, thermostatic waterbath, immunohistochemistry kit, antigen retrieval kit, and microscope. […]

[3] = system: phospho-connexin 43 (ser 368); experiment: Immunohistochemical expression of phospho-connexin 43 in left ventricle; type: in vivo, rats; conditions: immunohistochemistry; Metoprolol, Shengsong Yangxin capsule; intragastric 7 days
Experimental: as §5

CD mice = experiment: CaCl2-induced arrhythmia, efficacy screening test; type: in vivo; conditions: CaCl2 tail vein 45 min after duodenal administration, amiodarone 78 mg/kg, NO.1 18.2, NO.2 157.6, NO.3 9.1, NO.4 462, NO.5 139, NO.6 1.16 mg/kg, NO.7 1.3 g/kg; for Duration (of arrhythmia), single animals: animals 1-10; for Duration (of arrhythmia), Mean: mean of 10 animals
Experimental: 90 CD mice, male, weighing 28-30 g, Beijing Vital River Laboratory Animal Technology Co., license number Sea (Beijing) 2006-0009. […] Before administration each drug was prepared to the desired concentration with physiological saline, duodenal route of administration, the dose of 10 mL/kg. […] Observed ECG whether induced arrhythmia, recorded the duration of ventricular arrhythmia; and the results were statistically analyzed.

Row | Compound | MI area/total area of ventricular chamber (%) (Wistar male rats) | Concentrations of Na^+-k^+-ATPase (Na^+—K^+-ATPase) | The concentrations of Ca^2+-ATPase (Ca^2+-ATPase) | Gray degree of Connexin 43 (connexin 43 [1]) | IOD of connexin 43 (connexin 43 [2]) | expression Area of connexin 43 (connexin 43 [2]) | IOD values of phospho-connexin 43 [3] | expression Area of phospho-connexin 43 [3] | Duration (of arrhythmia), single animals (CD mice) | Duration (of arrhythmia), Mean (CD mice) [s]
1 | COCCc1ccc(OCC(O)CNC(C)C)cc1 (stereo not drawn) [Metoprolol] | 19.0847 ± 2.819 | 10.1177 ± 0.167**ΔΔ U/ml | 17.5339 ± 0.2439**ΔΔ U/ml | 0.5443 ± 0.1523**ΔΔ | 4535.0243 ± 1743**ΔΔ | 17723.1800 ± 6672**ΔΔ | 2686.5321 ± 1725**ΔΔ | 13283.8000 ± 8070**ΔΔ |  | 
2 | COc1cc2c(cc1OC)[C@@H]1Cc3ccc(OC)c(OC)c3CN1CC2 [Sample6, Tetrahydropalmatine] |  |  |  |  |  |  |  |  | 70 s (2×) and 79 s (2×) and 100 s and 47 s and 181 s and 104 s and 130 s and 80 s | 94.0
3 | CCCCc1oc2ccccc2c1C(=O)c1cc(I)c(OCCN(CC)CC)c(I)c1 [amiodarone] |  |  |  |  |  |  |  |  | 60 s and 106 s and 76 s and 53 s and 104 s and 99 s and 0 s and 86 s and 88 s and 120 s | 79.2
